Test results: ChEMBL document CHEMBL6078643, “Palladium-Mediated Bioorthogonal System for Prodrug Activation of N-Benzylbenzamide-Containing Tubulin Polymerization Inhibitors for the Treatment of Solid Tumors” (J Med Chem, 2024)
pIC50: −log10 of the molar value. Activity calls are given as the source filed them. The rule behind the calls is not given here.

Experiments:
[1] = molecular target: T1, Tubulin (Homo sapiens) (UniProt P68371+Q9H4B7+P0DPH7+P68366+Q13509+Q71U36+P04350+Q3ZCM7+P07437+P68363+Q9BQE3+Q6PEY2+Q13885+Q9BVA1+Q9BUF5); experiment: In vivo inhibition of tubulin polymerization in human HepG2 cells xenografted in Balb/c mouse assessed as decrease in beta tubulin expression at 20 mg/kg, iv administered daily for 14 days in presence of palladium resins incubated for 24 hrs by Western blot analysis; type: functional, organism-based; conditions: time 14.0 day
[2] = tested on: K562; experiment: Antiproliferative activity against human K562 cells at 100 nM incubated for 72 hrs in presence of palladium resins by CCK-8 assay; type: functional, cell-based
[3] = tested on: HUVEC; experiment: Antivascular activity against HUVEC cells assessed as inhibition of cell migration at 80 nM incubated for 24 hrs in presence of palladium resins by phase contrast microscopic analysis; type: functional, cell-based; conditions: Homo sapiens
[4] = tested on: K562; experiment: Induction of cell cycle arrest in human K562 cells assessed as accumulation of cells at G1 phase at 80 nM incubated for 72 hrs by PI staining based flow cytometric analysis ( Rvb = 77.46 %); type: functional
[5] = tested on: HepG2; experiment: Cytotoxicity against human HepG2 cell assessed as parent drug 5-fluoro-N-(3-hydroxy-4-methoxybenzyl)-2-morpholinobenzamide mediated decrease in cell viability at 100 nM in presence of palladium resins incubated for 72 hrs by CCK-8 assay; type: functional, cell-based
[6] = tested on: K562; experiment: Induction of cell cycle arrest in human K562 cells assessed as accumulation of cells at G2/M phase at 80 nM incubated for 72 hrs by PI staining based flow cytometric analysis ( Rvb = 8.5 %); type: functional
[7] = molecular target: T1, Tubulin (Homo sapiens); experiment: Inhibition of tubulin polymerization in human K562 cells assessed as decrease in polymerized alpha tubulin level at 80 nM incubated for 24 hrs in presence of palladium resins by Western blotting analysis; type: cell-based
[8] = Toxicity in Balb/c mouse xenografted with human HepG2 cells assessed as effect on liver at 20 mg/kg, iv administered daily in presence of palladium resins for 14 days by H and E staining based analysis; type: organism-based; conditions: in vivo, 336 h, time 14 day
[9] = molecular target: T1, Tubulin (Homo sapiens); experiment: Inhibition of tubulin polymerization in human HepG2 cells assessed as decrease in beta tubulin expression at 80 nM incubated for 24 hrs in presence of palladium resins by Western blotting analysis; type: cell-based
[10] = tested on: Mitochondrial membrane; experiment: Induction of mitochondrial membrane potential loss in human K562 cells assessed as increase in green fluorescence intensity at 80 nM incubated for 72 hrs in presence of palladium resins by JC-1 staining based flow cytometric analysis (reference value: 6.74%); type: cell membranes
[11] = molecular target: Bcr/Abl fusion protein (Homo sapiens) (UniProt P00519+P11274); experiment: Inhibition of Bcr-Abl in human K562 cells at 80 nM incubated for 24 hrs in presence of palladium resins by Western blotting analysis; type: cell-based
[12] = tested on: K562; experiment: Antiproliferative activity against human K562 cells assessed as reduction in cell viability incubated for 72 hrs by CCK-8 assay; type: functional, cell-based; conditions: K562, 72 h
[13] = Antiproliferative activity against human THLE-2 cells assessed as reduction in cell viability incubated for 72 hrs by CCK-8 assay; type: toxicity, cell-based
[14] = tested on: K562; experiment: Induction of cell cycle arrest in human K562 cells assessed as accumulation of cells at S phase at 80 nM incubated for 72 hrs in presence of palladium resins by PI staining based flow cytometric analysis ( Rvb = 14.04 %); type: functional
[15] = Toxicity in Balb/c mouse xenografted with human HepG2 cells assessed as effect on lung at 20 mg/kg, iv administered daily in presence of palladium resins for 14 days by H and E staining based analysis; type: organism-based; conditions: in vivo, 336 h, time 14 day
[16] = tested on: K562; experiment: Induction of ROS generation in human K562 cells assessed as increase in DCF-positive cells incubated for 72 hrs by DCF-DA staining based flow cytometric analysis (reference value: 7.67%); type: functional
[17] = tested on: K562; experiment: Induction of cell cycle arrest in human K562 cells assessed as accumulation of cells at G2 phase at 80 nM incubated for 72 hrs in presence of palladium resins by PI staining based flow cytometric analysis ( Rvb = 8.5 %); type: functional
[18] = tested on: K562; experiment: Induction of apoptosis in human K562 cells assessed as necrotic cells at 80 nM incubated for 72 hrs in presence of palladium resins by Annexin V-APC staining based flow cytometric analysis (reference value: 1.65%); type: functional
[19] = tested on: HUVEC; experiment: Antivascular activity against HUVEC cells assessed as inhibition of capillary tube formation at 80 nM incubated for 6 hrs in presence of palladium resins by inverted microscopic analysis; type: functional, cell-based; conditions: Homo sapiens
[20] = molecular target: T1, Tubulin (Homo sapiens); experiment: Inhibition of tubulin polymerization in human K562 cells assessed as decrease in beta tubulin expression at 80 nM incubated for 24 hrs in presence of palladium resins by Western blotting analysis; type: cell-based
[21] = Prodrug release in PBS buffer assessed as half release time of 5-fluoro-N-(3-hydroxy-4-methoxybenzyl)-2-morpholinobenzamide in presence of palladium resins at 75 uM by HPLC analysis; type: ADME
[22] = Toxicity in Balb/c mouse xenografted with human HepG2 cells assessed as effect on heart at 20 mg/kg, iv administered daily in presence of palladium resins for 14 days by H and E staining based analysis; type: organism-based; conditions: in vivo, 336 h, time 14 day
[23] = tested on: K562; experiment: Induction of cell cycle arrest in human K562 cells assessed as accumulation of cells at S phase at 80 nM incubated for 72 hrs by PI staining based flow cytometric analysis ( Rvb = 14.04 %); type: functional
[24] = tested on: K562; experiment: Induction of cell cycle arrest in human K562 cells assessed as accumulation of cells at G1 phase at 80 nM incubated for 72 hrs in presence of palladium resins by PI staining based flow cytometric analysis ( Rvb = 77.46 %); type: functional
[25] = tested on: K562; experiment: Induction of apoptosis in human K562 cells assessed as late apoptotic cells at 80 nM incubated for 72 hrs in presence of palladium resins by Annexin V-APC staining based flow cytometric analysis (reference value: 1.36%); type: functional
[26] = tested on: HepG2; experiment: Antiproliferative activity against human HepG2 cells at 100 nM incubated for 72 hrs in presence of palladium resins by CCK-8 assay; type: functional, cell-based
[27] = tested on: K562; experiment: Induction of apoptosis in human K562 cells assessed as chromatin condensation at 80 nM incubated for 72 hrs in presence of palladium resins by Hoechst 33342 staining based fluorescent microscopic analysis; type: functional, cell-based
[28] = tested on: K562; experiment: Induction of cell cycle arrest in human K562 cells assessed as accumulation of cells at G2 phase at 80 nM incubated for 72 hrs by PI staining based flow cytometric analysis ( Rvb = 8.5 %); type: functional
[29] = tested on: HepG2; experiment: Antitumor activity against human HepG2 cells xenografted in Balb/c mouse assessed as cell necrosis at 20 mg/kg, iv administered daily for 14 days in presence of palladium resins by TUNEL staining based analysis; type: functional, organism-based; conditions: time 14.0 day
[30] = tested on: Mitochondrial membrane; experiment: Induction of mitochondrial membrane potential loss in human K562 cells assessed as green fluorescence intensity incubated for 72 hrs by JC-1 staining based flow cytometric analysis (reference value: 6.74%); type: cell membranes
[31] = tested on: HepG2; experiment: Antitumor activity against human HepG2 cells xenografted in Balb/c mouse assessed as tumor growth inhibition at 20 mg/kg, iv administered daily in presence of palladium resins for 14 days relative to control; type: functional; conditions: HepG2, 336 h, time 14 day

Chain of Bcr/Abl fusion protein (Homo sapiens) (P00519 whole entry, looked up, the tested form may be a part): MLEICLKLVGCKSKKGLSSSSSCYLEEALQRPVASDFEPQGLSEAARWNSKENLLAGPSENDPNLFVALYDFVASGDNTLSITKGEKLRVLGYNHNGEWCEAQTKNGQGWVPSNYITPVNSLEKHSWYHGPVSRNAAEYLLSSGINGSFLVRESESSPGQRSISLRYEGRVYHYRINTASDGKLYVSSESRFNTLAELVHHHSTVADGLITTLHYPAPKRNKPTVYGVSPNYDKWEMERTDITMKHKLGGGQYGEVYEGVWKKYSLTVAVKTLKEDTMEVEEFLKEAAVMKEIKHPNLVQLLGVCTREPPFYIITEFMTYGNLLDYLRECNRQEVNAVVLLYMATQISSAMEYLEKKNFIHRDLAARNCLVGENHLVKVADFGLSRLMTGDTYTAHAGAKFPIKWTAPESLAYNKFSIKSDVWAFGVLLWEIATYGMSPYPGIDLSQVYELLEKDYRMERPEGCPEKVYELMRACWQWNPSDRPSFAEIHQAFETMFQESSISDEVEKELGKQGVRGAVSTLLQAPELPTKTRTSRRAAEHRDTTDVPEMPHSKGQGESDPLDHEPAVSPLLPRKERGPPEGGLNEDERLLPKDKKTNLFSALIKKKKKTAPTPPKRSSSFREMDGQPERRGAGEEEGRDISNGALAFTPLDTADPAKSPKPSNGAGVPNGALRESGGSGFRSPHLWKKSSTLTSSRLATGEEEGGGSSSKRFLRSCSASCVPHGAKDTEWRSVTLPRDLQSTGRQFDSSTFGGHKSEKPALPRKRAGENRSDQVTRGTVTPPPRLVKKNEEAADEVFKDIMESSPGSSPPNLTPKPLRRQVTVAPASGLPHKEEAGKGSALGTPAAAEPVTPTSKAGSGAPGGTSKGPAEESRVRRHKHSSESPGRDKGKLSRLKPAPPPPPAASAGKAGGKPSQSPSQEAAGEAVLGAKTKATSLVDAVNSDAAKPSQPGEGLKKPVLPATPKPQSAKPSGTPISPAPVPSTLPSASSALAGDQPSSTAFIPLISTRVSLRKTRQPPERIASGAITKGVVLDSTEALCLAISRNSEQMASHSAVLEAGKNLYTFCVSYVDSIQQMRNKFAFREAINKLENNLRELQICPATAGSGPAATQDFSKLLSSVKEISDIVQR
Chain of Bcr/Abl fusion protein (Homo sapiens) (P11274 whole entry, looked up, the tested form may be a part): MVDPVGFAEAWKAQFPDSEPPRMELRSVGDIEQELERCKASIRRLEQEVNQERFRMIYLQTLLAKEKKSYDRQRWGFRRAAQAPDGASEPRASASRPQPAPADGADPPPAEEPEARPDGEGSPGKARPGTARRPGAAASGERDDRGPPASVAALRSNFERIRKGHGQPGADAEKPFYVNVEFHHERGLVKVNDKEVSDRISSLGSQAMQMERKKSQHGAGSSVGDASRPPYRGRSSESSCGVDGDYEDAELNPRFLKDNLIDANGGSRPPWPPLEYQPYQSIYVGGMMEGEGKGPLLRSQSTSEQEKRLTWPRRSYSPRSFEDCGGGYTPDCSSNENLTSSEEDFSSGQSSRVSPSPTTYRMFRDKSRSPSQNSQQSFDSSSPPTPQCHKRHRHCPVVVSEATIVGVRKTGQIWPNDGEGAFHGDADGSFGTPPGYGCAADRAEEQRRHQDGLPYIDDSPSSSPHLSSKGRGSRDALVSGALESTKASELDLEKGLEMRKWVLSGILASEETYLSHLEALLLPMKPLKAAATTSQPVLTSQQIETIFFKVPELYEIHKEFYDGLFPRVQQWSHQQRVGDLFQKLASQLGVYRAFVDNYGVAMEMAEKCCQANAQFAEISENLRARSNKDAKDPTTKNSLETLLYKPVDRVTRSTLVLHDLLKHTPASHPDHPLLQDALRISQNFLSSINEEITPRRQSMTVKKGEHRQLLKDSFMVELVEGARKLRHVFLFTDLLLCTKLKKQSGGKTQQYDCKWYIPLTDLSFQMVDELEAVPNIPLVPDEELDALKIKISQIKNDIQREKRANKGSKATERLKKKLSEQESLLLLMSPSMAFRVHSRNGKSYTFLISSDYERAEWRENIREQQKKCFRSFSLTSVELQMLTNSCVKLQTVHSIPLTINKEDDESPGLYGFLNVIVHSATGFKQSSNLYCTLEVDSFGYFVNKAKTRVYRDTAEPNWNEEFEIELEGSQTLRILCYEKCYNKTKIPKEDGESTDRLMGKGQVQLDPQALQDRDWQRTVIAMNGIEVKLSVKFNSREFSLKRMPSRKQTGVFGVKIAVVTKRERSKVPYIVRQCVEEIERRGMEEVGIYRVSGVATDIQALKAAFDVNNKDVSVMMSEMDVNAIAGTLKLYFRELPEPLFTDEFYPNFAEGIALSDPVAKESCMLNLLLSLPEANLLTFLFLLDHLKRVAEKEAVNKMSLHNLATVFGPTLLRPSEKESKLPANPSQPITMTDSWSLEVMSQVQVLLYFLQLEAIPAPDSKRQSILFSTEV

Activity [1]: Active
inhibition [7]: Active
inhibition [9]: Active
Activity [10]: 54.2%
inhibition [11]: Active
pIC50 [12]: 5.96
inhibition [20]: Active
t1/2 [21]: 7.2 h
Activity [30]: 8.08%
SMILES: C#CCOc1cc(CNC(=O)c2cc(F)ccc2N2CCOCC2)ccc1OC
Activity [2]: Active
Activity [3]: Active
Activity [4]: 67.39%
Activity [5]: Active
Activity [6]: 8.97%
Activity [8]: Non-toxic
IC50 at 72 h [13]: 1420 nM
Activity [14]: 29.11%
Activity [15]: Non-toxic
Activity [16]: 8.22%
Activity [17]: 12.3%
Activity [18]: 2.95%
Activity [19]: Active
Activity [22]: Non-toxic
Activity [23]: 23.64%
Activity [24]: 58.6%
Activity [25]: 27.82%
Activity [26]: Active
Activity [27]: Active
Activity [28]: 8.97%
Activity [29]: Active
inhibition in vivo at 20 mg/kg [31]: 63.2%
